According to patent US9539260B2, “Dihydro-benzo-oxazine and dihydro-pyrido-oxazine derivatives” (Novartis AG, priority 2012, dated 2017):

How the values were obtained:
PI3K alpha = PI3K alpha (Homo sapiens (Human), UniProt P42336); test: Enzymatic PI3K alpha isoform inhibition (lipid kinase activity, Kinase-Glo luminescence); type: biochemical; settings: Enzymatic assay
Description: (§1) 1.1 Test of Lipid Kinase Activity […]
(§2) In a more preferred assay, the kinase reaction is performed in a final volume of 10 μl per well of a low volume non-binding CORNING, 384 well black plate (Cat. No. #3676). The final concentrations of ATP and phosphatidyl inositol (PI) in the assay are 1 μM and 10 μg/mL, respectively. The reaction is started by the addition of ATP.
(§3) The components of the assay are added per well as follows:
(§4) The Z′ value is a universal measurement of the robustness of an assay. A Z′ between 0.5 and 1.0 is considered an excellent assay.
(§5) IC50 is determined by a four parameter curve fitting routine that comes along with “excel fit”. A four parameter logistic equation is used to calculate IC50 values (IDBS XLfit) of the percentage inhibition of each compound at 8 concentrations (usually 10, 3.0, 1.0, 0.3, 0.1, 0.030, 0.010 and 0.003 μM). Alternatively, IC50 values are calculated using idbsXLfit model 204, which is a 4 parameter logistic model.
(§6) Yet alternatively, for an ATP depletion assay, compounds of the formula I to be tested are dissolved in DMSO and directly distributed into a white 384-well plate at 0.5 μl per well. To start the reaction, 10 μl of 10 nM PI3 kinase and 5 μg/mL 1-alpha-phosphatidylinositol (PI) are added into each well followed by 10 μl of 2 μM ATP. The reaction is performed until approx 50% of the ATP is depleted, and then stopped by the addition of 20 μl of Kinase-Glo solution (Promega Corp., Madison, Wis., USA). The stopped reaction is incubated for 5 minutes and the remaining ATP is then detected via luminescence. IC50 values are then determined.

PI3K delta = PI3K delta (Homo sapiens (Human), UniProt O00329); test: Enzymatic PI3K delta isoform inhibition (lipid kinase activity, Kinase-Glo luminescence); type: biochemical; settings: Enzymatic assay
Chain of PI3K delta (O00329 other isoform, or with tags, fused parts or gaps linker GGGGGG): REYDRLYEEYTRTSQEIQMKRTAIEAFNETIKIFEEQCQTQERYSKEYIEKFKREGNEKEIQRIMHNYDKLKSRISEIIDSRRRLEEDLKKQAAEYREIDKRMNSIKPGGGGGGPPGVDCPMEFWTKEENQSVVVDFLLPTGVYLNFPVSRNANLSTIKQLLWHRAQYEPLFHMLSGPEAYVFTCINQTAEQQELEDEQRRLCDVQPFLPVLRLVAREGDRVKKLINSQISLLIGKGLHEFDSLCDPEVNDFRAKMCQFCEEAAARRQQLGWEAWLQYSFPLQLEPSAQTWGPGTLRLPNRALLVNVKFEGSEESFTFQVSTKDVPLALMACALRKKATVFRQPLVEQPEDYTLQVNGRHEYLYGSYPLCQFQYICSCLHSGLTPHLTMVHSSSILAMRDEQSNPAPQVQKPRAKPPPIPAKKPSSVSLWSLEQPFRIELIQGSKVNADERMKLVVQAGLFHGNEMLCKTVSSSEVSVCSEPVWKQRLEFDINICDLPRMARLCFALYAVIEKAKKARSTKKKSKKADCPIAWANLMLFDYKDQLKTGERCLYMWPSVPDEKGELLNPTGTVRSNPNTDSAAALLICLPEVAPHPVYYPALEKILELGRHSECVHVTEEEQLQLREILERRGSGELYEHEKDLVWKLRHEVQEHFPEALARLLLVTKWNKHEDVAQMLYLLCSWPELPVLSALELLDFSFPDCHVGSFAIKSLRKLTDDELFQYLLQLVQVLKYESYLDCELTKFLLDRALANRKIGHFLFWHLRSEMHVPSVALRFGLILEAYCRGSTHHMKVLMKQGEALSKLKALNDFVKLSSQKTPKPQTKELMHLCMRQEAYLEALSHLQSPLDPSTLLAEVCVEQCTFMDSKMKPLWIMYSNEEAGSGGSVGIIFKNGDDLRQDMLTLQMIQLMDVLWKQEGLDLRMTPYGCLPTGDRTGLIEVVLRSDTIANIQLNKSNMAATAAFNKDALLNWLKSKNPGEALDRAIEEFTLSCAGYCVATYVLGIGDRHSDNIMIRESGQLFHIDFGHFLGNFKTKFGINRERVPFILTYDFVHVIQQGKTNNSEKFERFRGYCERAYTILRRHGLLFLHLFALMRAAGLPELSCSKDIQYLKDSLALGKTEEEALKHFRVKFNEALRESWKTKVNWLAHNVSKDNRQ
Description: as §1, §2, §3, §4, §5, §6

Chain of PI3K alpha (P42336 other isoform, or with tags, fused parts or gaps): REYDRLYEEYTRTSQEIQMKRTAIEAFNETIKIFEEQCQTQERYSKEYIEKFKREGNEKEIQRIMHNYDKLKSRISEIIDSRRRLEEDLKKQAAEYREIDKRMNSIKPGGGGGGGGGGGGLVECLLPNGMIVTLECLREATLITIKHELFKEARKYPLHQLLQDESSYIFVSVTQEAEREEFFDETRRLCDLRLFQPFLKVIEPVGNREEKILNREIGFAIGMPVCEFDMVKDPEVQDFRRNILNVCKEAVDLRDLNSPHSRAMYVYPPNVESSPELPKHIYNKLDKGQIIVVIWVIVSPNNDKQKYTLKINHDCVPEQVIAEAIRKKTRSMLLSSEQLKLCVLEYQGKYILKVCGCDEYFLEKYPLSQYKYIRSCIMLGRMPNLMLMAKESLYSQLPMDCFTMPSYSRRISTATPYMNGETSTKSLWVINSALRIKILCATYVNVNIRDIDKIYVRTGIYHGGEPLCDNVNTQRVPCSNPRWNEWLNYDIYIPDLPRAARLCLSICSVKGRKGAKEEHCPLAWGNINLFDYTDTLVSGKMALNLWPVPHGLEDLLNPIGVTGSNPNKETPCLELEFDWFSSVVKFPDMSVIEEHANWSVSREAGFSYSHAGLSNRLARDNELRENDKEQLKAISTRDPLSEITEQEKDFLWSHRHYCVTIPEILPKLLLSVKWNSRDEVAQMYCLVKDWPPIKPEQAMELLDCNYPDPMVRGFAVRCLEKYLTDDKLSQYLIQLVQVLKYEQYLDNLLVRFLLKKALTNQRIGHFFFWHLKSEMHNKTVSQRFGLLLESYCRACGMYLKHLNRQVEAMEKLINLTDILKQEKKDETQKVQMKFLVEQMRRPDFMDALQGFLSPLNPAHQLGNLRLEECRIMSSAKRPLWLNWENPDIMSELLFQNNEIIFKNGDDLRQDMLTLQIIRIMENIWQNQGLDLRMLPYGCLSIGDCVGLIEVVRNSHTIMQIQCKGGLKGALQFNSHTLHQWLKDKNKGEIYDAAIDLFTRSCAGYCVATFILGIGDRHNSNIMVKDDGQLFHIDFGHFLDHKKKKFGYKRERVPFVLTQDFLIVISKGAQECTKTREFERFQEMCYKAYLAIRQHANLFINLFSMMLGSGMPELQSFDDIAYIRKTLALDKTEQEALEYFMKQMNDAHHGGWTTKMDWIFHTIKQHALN

Row | SMILES | IC50 (PI3K alpha) | IC50 (PI3K delta)
1 | CCC(=O)N1CC[C@H](Oc2ccc3c(c2)N(c2cncc(S(=O)(=O)C(C)C)c2)CCO3)C1 [Example B5, 1-((S)-3-{4-[5-(Propane-2-sulfonyl)-pyridin-3-yl]-3,4-dihydro-2H-benzo[1,4]oxazin-6-yloxy}-pyrrolidin-1-yl)-propan-1-one] | 236 nM | 25 nM
2 | Nc1ncc(N2CCOc3ccc(O[C@H]4CCN(C(=O)C5CCOCC5)C4)cc32)cc1C(F)(F)F [Example A23, {(S)-3-[4-(6-Amino-5-trifluoromethyl-pyridin-3-yl)-3,4-dihydro-2H-benzo[1,4]oxazin-6-yloxy]-pyrrolidin-1-yl}-(tetrahydro-pyran-4-yl)-methanone] | 1570 nM | 170 nM
3 | COCC(=O)N1CC[C@H](Oc2ccc3c(c2)N(c2cnc(S(C)(=O)=O)c(C)c2)CCO3)C1 [Example B32, 1-{(S)-3-[4-(6-Methanesulfonyl-5-methyl-pyridin-3-yl)-3,4-dihydro-2H-benzo[1,4]oxazin-6-yloxy]-pyrrolidin-1-yl}-2-methoxy-ethanone] | 369 nM | 36 nM
4 | CCC(=O)N1CC[C@H](Oc2ccc3c(c2)N(c2cnc(OC)c(S(=O)(=O)N4CCN(C)CC4)c2)CCO3)C1 [Example A18, 1-((S)-3-{4-[6-Methoxy-5-(4-methyl-piperazine-1-sulfonyl)-pyridin-3-yl]-3,4-dihydro-2H-benzo[1,4]oxazin-6-yloxy}-pyrrolidin-1-yl)-propan-1-one] | 895 nM | 11 nM
5 | COc1ncc(N2CCOc3ccc(O[C@H]4CCN(C(=O)c5cnco5)C4)cc32)cc1F [Example B103, {(S)-3-[4-(5-Fluoro-6-methoxy-pyridin-3-yl)-3,4-dihydro-2H-benzo[1,4]oxazin-6-yloxy]-pyrrolidin-1-yl}-oxazol-5-yl-methanone] | 241 nM | 46 nM
6 | COc1ncc(N2CCOc3ccc(O[C@H]4CCN(C(=O)c5cncnc5)C4)cc32)cc1C#N [Example C13, 2-Methoxy-5-{6-[(S)-1-(pyrimidine-5-carbonyl)-pyrrolidin-3-yloxy]-2,3-dihydro-benzo[1,4]oxazin-4-yl}-nicotinonitrile] | 667 nM | 77 nM
7 | COc1ncc(N2CCOc3ccc(O[C@H]4CCN(C(=O)CC#N)C4)cc32)cc1Cl [Example B109, 3-{(S)-3-[4-(5-Chloro-6-methoxy-pyridin-3-yl)-3,4-dihydro-2H-benzo[1,4]oxazin-6-yloxy]-pyrrolidin-1-yl}-3-oxo-propionitrile] | 118 nM | < 3 nM
8 | CCC(=O)N1CC[C@H](Oc2ccc3c(c2)N(c2cnc(OC)c(C#N)c2)CCO3)C1 [Example A9, 2-Methoxy-5-[6-((S)-1-propionyl-pyrrolidin-3-yloxy)-2,3-dihydro-benzo[1,4]oxazin-4-yl]-nicotinonitrile] | 410 nM | 14 nM
9 | COc1ncc(N2CCOc3ccc(O[C@H]4CCN(C(=O)c5cnco5)C4)cc32)cc1Cl [Example B108, {(S)-3-[4-(5-Chloro-6-methoxy-pyridin-3-yl)-3,4-dihydro-2H-benzo[1,4]oxazin-6-yloxy]-pyrrolidin-1-yl}-oxazol-5-yl-methanone] | 94 nM | < 3 nM
10 | COc1ncc(N2CCOc3ccc(O[C@H]4CCN(C(=O)C5CCS(=O)(=O)C5)C4)cc32)cc1C (stereo partly drawn) [Example B13, (1,1-Dioxo-tetrahydro-1lambda*6*-thiophen-3-yl)-{(S)-3-[4-(6-methoxy-5-methyl-pyridin-3-yl)-3,4-dihydro-2H-benzo[1,4]oxazin-6-yloxy]-pyrrolidin-1-yl}-methanone] | 862 nM | 62 nM
11 | COc1ncc(N2CCOc3ccc(O[C@H]4CCN(C(=O)CCS(C)(=O)=O)C4)cc32)cc1F [Example B112, 1-{(S)-3-[4-(5-Fluoro-6-methoxy-pyridin-3-yl)-3,4-dihydro-2H-benzo[1,4]oxazin-6-yloxy]-pyrrolidin-1-yl}-3-methanesulfonyl-propan-1-one] | 380 nM | 26 nM
12 | CCC(=O)N1CC[C@H](Oc2ccc3c(c2)N(c2ccc(C)c(C#N)c2)CCO3)C1 [Example A40, 2-Methyl-5-[6-((S)-1-propionyl-pyrrolidin-3-yloxy)-2,3-dihydro-benzo[1,4]oxazin-4-yl]-benzonitrile] | 5360 nM | 462 nM
13 | COc1ncc(N2CCOc3ccc(O[C@H]4CCN(C(=O)C5CCOC5)C4)cc32)cc1C (stereo partly drawn) [Example B15, {(S)-3-[4-(6-Methoxy-5-methyl-pyridin-3-yl)-3,4-dihydro-2H-benzo[1,4]oxazin-6-yloxy]-pyrrolidin-1-yl}-(tetrahydro-furan-3-yl)-methanone] | 2650 nM | 31 nM
14 | CCC(=O)N1CC[C@H](Oc2ccc3c(c2)N(c2cnc(N)c(C(F)(F)F)c2)CCO3)C1 [Example A17, 1-{(S)-3-[4-(6-Amino-5-trifluoromethyl-pyridin-3-yl)-3,4-dihydro-2H-benzo[1,4]oxazin-6-yloxy]-pyrrolidin-1-yl}-propan-1-one] | 104 nM | 14 nM
15 | CS(=O)(=O)c1ncc(N2CCOc3ccc(O[C@H]4CCN(C(=O)C5CCOCC5)C4)cc32)cc1CF [Example B71, {(S)-3-[4-(5-Fluoromethyl-6-methanesulfonyl-pyridin-3-yl)-3,4-dihydro-2H-benzo[1,4]oxazin-6-yloxy]-pyrrolidin-1-yl}-(tetrahydro-pyran-4-yl)-methanone] | 360 nM | 5.5 nM
16 | CCc1cc(N2CCOc3ccc(O[C@H]4CCN(C(=O)C5CCS(=O)(=O)CC5)C4)cc32)cnc1OC [Example B19, (1,1-Dioxo-hexahydro-1lambda*6*-thiopyran-4-yl)-{(S)-3-[4-(5-ethyl-6-methoxy-pyridin-3-yl)-3,4-dihydro-2H-benzo[1,4]oxazin-6-yloxy]-pyrrolidin-1-yl}-methanone] | 1160 nM | 33 nM
17 | COc1ncc(N2CCOc3ccc(O[C@H]4CCN(C(=O)C5CCOC5)C4)cc32)cc1F (stereo partly drawn) [Example B98, {(S)-3-[4-(5-Fluoro-6-methoxy-pyridin-3-yl)-3,4-dihydro-2H-benzo[1,4]oxazin-6-yloxy]-pyrrolidin-1-yl}-(tetrahydro-furan-3-yl)-methanone] | 910 nM | 13 nM
18 | COc1ncc(N2CCOc3ccc(O[C@H]4CCN(C(=O)C5COCCO5)C4)cc32)cc1C#N (stereo partly drawn) [Example C25, 5-{6-[(S)-1-([1,4]Dioxane-2-carbonyl)-pyrrolidin-3-yloxy]-2,3-dihydro-benzo[1,4]oxazin-4-yl}-2-methoxy-nicotinonitrile] | 474 nM | 12.5 nM

The next lines start with the values.

Row | IC50 (PI3K alpha) | IC50 (PI3K delta) | SMILES
19 | 1570 nM | 64 nM | COc1ncc(N2CCOc3ccc(O[C@H]4CCN(C(=O)c5cnn(C)c5)C4)cc32)cc1C#N [Example D27, 2-Methoxy-5-{6-[(S)-1-(1-methyl-1H-pyrazole-4-carbonyl)-pyrrolidin-3-yloxy]-2,3-dihydro-benzo[1,4]oxazin-4-yl}-nicotinonitrile]
20 | 477 nM | 11 nM | COc1cc(N2CCOc3ccc(O[C@H]4CCN(C(=O)C5COCCO5)C4)cc32)cnc1OC (single isomer, unassigned) [Example H5]
21 | 387 nM | 9 nM | COc1ncc(N2CCOc3ccc(O[C@H]4CCN(C(=O)C5CCS(=O)(=O)C5)C4)cc32)cc1Cl (single isomer, unassigned) [Example H13]
22 | 2740 nM | 149 nM | COc1ccc(N2CCOc3ccc(O[C@H]4CCN(C(=O)CN5CCOCC5)C4)cc32)cn1 [Example D2, 1-{(S)-3-[4-(6-Methoxy-pyridin-3-yl)-3,4-dihydro-2H-benzo[1,4]oxazin-6-yloxy]-pyrrolidin-1-yl}-2-morpholin-4-yl-ethanone]
23 | 414 nM | < 3 nM | COc1ncc(N2CCOc3ccc(O[C@H]4CCN(C(=O)C5CCC(OC)CC5)C4)cc32)cc1C#N (single isomer, unassigned) [Example D35]
24 | 530 nM | 7 nM | COc1ncc(N2CCOc3ccc(O[C@H]4CCN(C(=O)C5CCS(=O)(=O)C5)C4)cc32)cc1F (single isomer, unassigned) [Example H12]
25 | 987 nM | 36 nM | COc1ncc(N2CCOc3ccc(O[C@H]4CCN(C(=O)[C@H]5CCNC5)C4)cc32)cc1C#N [Example D39, 2-methoxy-5-{6-[(S)-1-((S)-pyrrolidine-3-carbonyl)-pyrrolidin-3-yloxy]-2,3-dihydro-benzo[1,4]oxazin-4-yl}-nicotinonitrile]
26 | 725 nM | 5 nM | COc1ncc(N2CCOc3cnc(O[C@H]4CCN(C(=O)C5CCS(=O)(=O)CC5)C4)cc32)cc1F [Example F2, (1,1-Dioxo-hexahydro-1lambda*6*-thiopyran-4-yl)-{(S)-3-[1-(5-fluoro-6-methoxy-pyridin-3-yl)-2,3-dihydro-1H-pyrido[3,4-b][1,4]oxazin-7-yloxy]-pyrrolidin-1-yl}-methanone]
